Data published in the supplement of paper PMC10307832.

Key:
Experiment in all cases: relative viability (nuclei count vs DMSO), 5 days (fraction); higher = more cells survive
[1] = compound: Cc1nc(C(=O)NCC(=O)O)c(O)c2ccc(Oc3ccccc3)cc12 [FG-4592] + N=C(N)NC(=N)NCCc1ccccc1 [Phenformin] (partner 250 µM)
Procedure, shortened: (§1)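 Lung cancer cell lines in 1536-well plates got either a single drug or a fixed anchor-drug dose together with five library-drug doses (not always all listed) in √10 steps, by pin tool, on the day after seeding. Nuclei were counted after 5 days, and relative viability is the treated-to-vehicle ratio of nuclei counts. Values are medians of duplicate plates.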

[2] = compound: Cc1nc(C(=O)NCC(=O)O)c(O)c2ccc(Oc3ccccc3)cc12 [FG-4592] + NC(=O)Nc1cc(-c2cccc(F)c2)sc1C(=O)N[C@H]1CCCNC1 [AZD7762] (partner 0.2 µM)
Procedure, shortened: as §1

[3] = compound: CC1=CC(=C(N1C2=CC=C(C=C2)Cl)C)C(=O)CN3CCCCC3 [IU1-47] + O=C(CCCCCCC(=O)Nc1ccccc1)NO [Vorinostat] (partner 1 µM)
Procedure, shortened: as §1

[4] = compound: CC1=CC(=C(N1C2=CC=C(C=C2)Cl)C)C(=O)CN3CCCCC3 [IU1-47] + CC(C)C[C@H](NC(=O)[C@H](Cc1ccccc1)NC(=O)c1cnccn1)B(O)O [Bortezomib] (partner 0.002 µM)
Procedure, shortened: as §1

Cell Line	relative viability ([1]; first compound 0.08 µM)	relative viability ([1]; first compound 0.253 µM)	relative viability ([1]; first compound 0.8 µM)	relative viability ([1]; first compound 2.53 µM)	relative viability ([1]; first compound 8 µM)	relative viability ([2]; first compound 0.08 µM)	relative viability ([2]; first compound 0.253 µM)	relative viability ([2]; first compound 2.53 µM)	relative viability ([2]; first compound 8 µM)	relative viability ([3]; first compound 0.08 µM)	relative viability ([3]; first compound 0.253 µM)	relative viability ([3]; first compound 0.8 µM)	relative viability ([3]; first compound 2.53 µM)	relative viability ([3]; first compound 8 µM)	relative viability ([4]; first compound 0.08 µM)	relative viability ([4]; first compound 0.253 µM)	relative viability ([4]; first compound 0.8 µM)	relative viability ([4]; first compound 2.53 µM)	relative viability ([4]; first compound 8 µM)	relative viability ([2]; first compound 0.8 µM)
NCI-H522	0.711	0.583	0.562	0.669	0.641	0.78	0.717	0.666	0.819	0.95	0.903	0.884	0.695	0.851						
IA-LM										0.951	1.13	1.11	0.444	1.06	0.917	0.899	0.904	0.782	0.824	
SK-MES-1	0.626	0.66	0.669	0.596	0.674					1.09	1.15	1.26	1.24	1.03						
NCI-H2170	0.381	0.359	0.494	0.43	0.503	0.755	0.834	0.817	0.643	0.997	0.973	0.921	0.748	0.747						0.816
SW 1573	0.388	0.346	0.435	0.372	0.35					0.736	0.732	0.779	0.454	0.792	1.15	1.04	1.41	1.3	0.861	
NCI-H661	0.271	0.281	0.264	0.274	0.276					0.805	0.861	0.798	0.836	0.761	0.962	0.944	0.896	0.564	0.732	
NCI-H1793	0.357	0.273		0.307	0.36		0.48	0.696	0.37	0.628		0.77	0.64	0.686						
NCI-H520	0.31	0.595		0.51	0.465					0.783	0.671	0.681	0.685	0.589	0.679	0.687	0.821	0.576	0.408	
NCI-H2023	0.427	0.38	0.437	0.442	0.379					0.699	0.767	0.668	0.497	0.748	0.94	1.15	1	0.481	1.12	
NCI-H2009	0.502	0.402	0.53	0.454	0.549					0.761	0.783	0.72	0.656	0.668	1.11	1.13	0.998	0.513	1.05	
